# Structures can show the parent of a compound that is named as a salt.
# Target: T1, purified enkephalinase Al (Rattus norvegicus, UniProt P07861)
# T1 construct: the solubilised enzymes contained in the supernatant separated by DEAE-cellulose column chromatography; from tissue; host or cells: rat striatum, washed membrane pellet solubilised with Triton X-100, DEAE-cellulose then Sephacryl S.300
# T1 sequence (P07861 1-750): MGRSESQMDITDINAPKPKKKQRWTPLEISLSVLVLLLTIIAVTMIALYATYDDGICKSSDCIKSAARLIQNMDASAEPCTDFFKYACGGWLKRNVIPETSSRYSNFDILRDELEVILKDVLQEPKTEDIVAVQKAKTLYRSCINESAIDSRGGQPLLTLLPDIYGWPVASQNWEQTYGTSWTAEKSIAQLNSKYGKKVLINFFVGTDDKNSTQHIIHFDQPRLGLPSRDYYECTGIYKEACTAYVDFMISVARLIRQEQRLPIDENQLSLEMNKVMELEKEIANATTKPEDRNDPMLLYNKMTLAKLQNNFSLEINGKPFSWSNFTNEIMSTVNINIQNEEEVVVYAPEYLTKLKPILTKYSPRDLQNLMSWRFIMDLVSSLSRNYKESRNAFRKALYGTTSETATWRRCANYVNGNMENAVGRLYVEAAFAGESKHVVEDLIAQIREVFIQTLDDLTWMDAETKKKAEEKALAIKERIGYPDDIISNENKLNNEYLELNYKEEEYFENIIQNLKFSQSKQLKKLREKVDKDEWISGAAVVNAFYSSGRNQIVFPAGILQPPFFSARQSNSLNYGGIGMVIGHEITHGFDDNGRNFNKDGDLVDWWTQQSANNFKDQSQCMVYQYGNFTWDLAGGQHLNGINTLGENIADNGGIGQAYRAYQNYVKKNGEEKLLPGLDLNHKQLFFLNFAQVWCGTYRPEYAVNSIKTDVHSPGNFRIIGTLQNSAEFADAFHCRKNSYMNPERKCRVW
# Assay: Enkephalinase-inhibiting activity in vitro (inhibition of 3H-TGG generation from 3H-leucine enkephalin)
# Assay type: biochemical
# Conditions: approximate, determined graphically; leucine enkephalin 5×10^-5 M; 30° C.; 30 min with enzyme; read-out: IC50 (concentration of test compound required for 50% inhibition of 3H-TGG generation)
# Experimental: The compounds were investigated for enkephalinase-inhibiting activity using the following method.
# Purified enkephalinase Al was obtained according to the following procedure (modification of the method of Gorenstein and Snyder, Life Science, Vol. 25, pages 2065-2070, 1979).
# Rats were killed by decapitation and the striata dissected out on ice. The pooled tissues were homogenised in ice-cold Tris/hydrochloric acid buffer (50 mM, pH 7.70, 30 ml per gram of tissue) and centrifuged (50,000 g, 15 mins). The resulting supernatent was discarded and the remaining pellet washed three times. The washed pellet was solubilised by resuspension in half the volume of buffer as before containing 1.0% (v/v) Triton X-100 and incubated at 37° C. for 45 mins. The suspension was then centrifuged at 100,000 g for 60 mins and the solubilised enzymes contained in the supernatant separated by DEAE-cellulose column chromatography. Enkephalinase Al was further purified by Sephacryl S.300 chromatography.
# Enkephalinase-inhibiting activity was estimated by the following procedure. 1.75 μl of leucine enkephalin (0.317 mg/ml), 0.5 μl of ^3 H-leucine enkephalin (tyrosyl-3,5-^3 H Enkephalin (5-L-Leucine), The Radiochemical Centre, Amersham, England) and 5.75 μl of buffer as before were incubated at 30° C. for 10 mins with 2 μl of either a solution of test compound (in either 50% ethanol/0.1 M sodium hydrogen carbonate or distilled water) or solvent alone as control. 10 μl of purified enkephalinase Al at 30° C. were added and incubation then continued for a further 30 mins (total incubation time 40 mins, final leucine enkephalin concentration 5×10^-5 M, final ^3 H-leucine enkephalin concentration 12.5 μCi/ml). At the completion of incubation 3 μl of 0.16 M hydrochloric acid was added and the incubation mixture cooled on ice.
# Separation of (a) unchanged ^3 H-leucine enkephalin and (b) ^3 H-Tyr-Gly-Gly-OH (^3 H-TGG), generated from (a) by enkephalinase Al in the incubation mixture was effected by thin layer chromatography (plastic silica gel plates of 0.1 mm layer chromatography (plastic silica gel plates of 0.1 mm layer thickness, solvent system ethyl acetate: propan-2-ol: 5% (v/v) acetic acid, 2:2:1) using solutions of the cold compounds as carriers. After drying the materials were visualized with ninhydrin and appropriate areas of the plates cut out and placed in scintillation vials containing 50% methanol/0.1 M hydrochloric acid to elute the ^3 H label. Biofluor reagent (10 ml) was then added and the radioactivity determined by liquid scintillation counting.
# The ^3 H-TGG generated in the presence of test compound (expressed as a percentage of the control figure) was then calculated and an approximate IC50 figure (concentration of test compound required for 50% inhibition of ^3 H-TGG generation) then determined graphically.
row,IC50 [nM],Structure (SMILES)
1,600,"CCOC(=O)[C@H](CC(C)C)NC(=O)C(Cc1ccccc1)P(=O)(O)O (stereo partly drawn) [compound 4, N-[2-(Dihydroxyphosphinyl)-3-phenylpropionyl.-L-leucine] ethyl ester]"
2,680,"CCOC(=O)[C@H](CC(C)C)NC(=O)C(Cc1ccccc1)CP(=O)(O)O (single isomer, unassigned) [compound 11]"
3,100000,"CCOC(=O)[C@H](CC(C)C)NC(=O)C(Cc1ccccc1)CP(=O)(O)O (single isomer, unassigned) [compound 12]"
4,18000,"CC(C)C[C@H](NC(=O)C(Cc1ccccc1)CP(=O)(O)O)C(=O)O (single isomer, unassigned) [compound 14, N-[2-Benzyl-3-(dihydroxyphosphinyl)propionyl]leucine]"
5,160,"CC(C)C[C@H](NC(=O)C(Cc1ccccc1)CP(=O)(O)O)C(=O)O (single isomer, unassigned) [compound 13, N-[2-Benzyl-3-(dihydroxyphosphinyl)propionyl]leucine]"
6,1500,"CCOC(=O)[C@H](CC(C)C)NC(=O)C(Cc1ccccc1)P(=O)(O)O (stereo partly drawn) [compound 5, N-[2-(Dihydroxyphosphinyl)-3-phenylpropionyl.-L-leucine] ethyl ester]"
7,1800,"COc1ccc(CC(C(=O)N[C@@H](CC(C)C)C(=O)O)P(=O)(O)O)cc1 (single isomer, unassigned) [Compound No. 1, N-[2-(Dihydroxyphosphinyl)-3-(4-methoxyphenyl)propionyl]-L-leucine]"
8,680,"CC(C)C[C@H](NC(=O)C(Cc1ccccc1)P(=O)(O)O)C(=O)O (stereo partly drawn) [Compound No. 7, N-[2-(Dihydroxyphosphinyl)-3-phenylpropionyl]-L-leucine tri-lithium salt]"
9,130,"CC(C)C[C@H](NC(=O)C(Cc1ccccc1)P(=O)(O)O)C(=O)O (stereo partly drawn) [compound 6, N-[2-(Dihydroxyphosphinyl)-3-phenylpropionyl]-L-leucine tri-lithium salt]"
10,23000,"CC(C)C[C@H](NC(=O)C(Cc1ccc(C(C)C)cc1)P(=O)(O)O)C(=O)O (stereo partly drawn) [Compound No. 10, N-[2-dihydroxyphosphinyl-3-(4-isopropylphenyl)propionyl]-L-leucine, disodium salt]"
11,30000,"C[C@H](CS)C(=O)N1CCC[C@H]1C(=O)O [Captopril, 1-(D-3-mercapto-2-methylpropanoyl)-L-proline (S,S), reference compound]"
12,6800,"CC(C)C[C@H](NC(=O)C(Cc1ccc(Br)cc1)P(=O)(O)O)C(=O)O (stereo partly drawn) [Compound No. 9, N-[3-(4-bromophenyl)-2-dihydroxyphosphinylpropionyl]-L-leucine, monosodium salt]"

# Same assay, conditions: no effect at 3 × 10^-5; leucine enkephalin 5×10^-5 M; 30° C.; 30 min with enzyme; read-out: IC50 (footnote symbol: no effect)
row,Structure (SMILES),IC50 [nM]
1,"CCOC(=O)[C@H](CC(C)C)NC(=O)C(Cc1ccccc1)P(=O)(OCC)OCC (stereo partly drawn) [compound 2, N-[2-(Diethoxyphosphinyl)-3-phenylpropionyl]-L-leucine ethyl ester]",> 30000
2,"CCOP(=O)(OCC)C(Cc1ccccc1)C(=O)N[C@@H](CC(C)C)C(=O)O (stereo partly drawn) [compound 8, N-[2-(Diethoxyphosphinyl)-3-phenylpropionyl]-L-leucine]",> 30000

# Tested on: ACE versus enkephalinase
# Assay: not given
# Conditions: reported by Swerts et al.; ACE vs enkephalinase; cited from earlier work
row,Structure (SMILES),concentration required to inhibit ACE by 50% lower than that required for the same degree of inhibition of enkephalinase
1,"C[C@H](CS)C(=O)N1CCC[C@H]1C(=O)O [Captopril, 1-(D-3-mercapto-2-methylpropanoyl)-L-proline (S,S), reference compound]",approximately 1000 fold
